The record followed here is ChEMBL document CHEMBL5500385, “Macrocyclization strategy for improving candidate profiles in medicinal chemistry” (Eur J Med Chem, 2024).

Series [1] has as its target Calcitonin gene-related peptide type 1 receptor (Homo sapiens, UniProt O60894+Q16602).
Description: Inhibition of CGRP (unknown origin)
In series [2] the target is T1, Peptidyl-prolyl cis-trans isomerase FKBP4 (Homo sapiens, UniProt Q02790).
T1 sequence (Q02790 whole entry): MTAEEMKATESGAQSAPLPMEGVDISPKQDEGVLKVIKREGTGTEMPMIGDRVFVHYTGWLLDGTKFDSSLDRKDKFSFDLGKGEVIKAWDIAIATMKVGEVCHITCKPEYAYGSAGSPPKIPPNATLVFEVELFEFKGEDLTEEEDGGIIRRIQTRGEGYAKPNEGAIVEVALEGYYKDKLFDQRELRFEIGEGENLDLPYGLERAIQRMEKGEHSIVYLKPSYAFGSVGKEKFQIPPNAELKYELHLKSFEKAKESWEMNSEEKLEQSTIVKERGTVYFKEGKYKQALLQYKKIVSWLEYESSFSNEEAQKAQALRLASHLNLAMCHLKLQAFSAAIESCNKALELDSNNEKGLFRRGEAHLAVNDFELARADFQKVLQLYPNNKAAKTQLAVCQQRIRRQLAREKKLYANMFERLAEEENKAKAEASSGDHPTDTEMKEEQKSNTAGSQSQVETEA
Description: Binding affinity to FKBP52 (unknown origin) assessed as inhibition constant by fluorescence polarization assay

The target of another series is Prothrombin (Homo sapiens, UniProt P00734).
A further series has as its target Plasminogen (Homo sapiens, UniProt P00747).
Series [3] has as its target T2, ATP-citrate synthase (Homo sapiens, UniProt P53396).
T2 sequence (P53396 whole entry): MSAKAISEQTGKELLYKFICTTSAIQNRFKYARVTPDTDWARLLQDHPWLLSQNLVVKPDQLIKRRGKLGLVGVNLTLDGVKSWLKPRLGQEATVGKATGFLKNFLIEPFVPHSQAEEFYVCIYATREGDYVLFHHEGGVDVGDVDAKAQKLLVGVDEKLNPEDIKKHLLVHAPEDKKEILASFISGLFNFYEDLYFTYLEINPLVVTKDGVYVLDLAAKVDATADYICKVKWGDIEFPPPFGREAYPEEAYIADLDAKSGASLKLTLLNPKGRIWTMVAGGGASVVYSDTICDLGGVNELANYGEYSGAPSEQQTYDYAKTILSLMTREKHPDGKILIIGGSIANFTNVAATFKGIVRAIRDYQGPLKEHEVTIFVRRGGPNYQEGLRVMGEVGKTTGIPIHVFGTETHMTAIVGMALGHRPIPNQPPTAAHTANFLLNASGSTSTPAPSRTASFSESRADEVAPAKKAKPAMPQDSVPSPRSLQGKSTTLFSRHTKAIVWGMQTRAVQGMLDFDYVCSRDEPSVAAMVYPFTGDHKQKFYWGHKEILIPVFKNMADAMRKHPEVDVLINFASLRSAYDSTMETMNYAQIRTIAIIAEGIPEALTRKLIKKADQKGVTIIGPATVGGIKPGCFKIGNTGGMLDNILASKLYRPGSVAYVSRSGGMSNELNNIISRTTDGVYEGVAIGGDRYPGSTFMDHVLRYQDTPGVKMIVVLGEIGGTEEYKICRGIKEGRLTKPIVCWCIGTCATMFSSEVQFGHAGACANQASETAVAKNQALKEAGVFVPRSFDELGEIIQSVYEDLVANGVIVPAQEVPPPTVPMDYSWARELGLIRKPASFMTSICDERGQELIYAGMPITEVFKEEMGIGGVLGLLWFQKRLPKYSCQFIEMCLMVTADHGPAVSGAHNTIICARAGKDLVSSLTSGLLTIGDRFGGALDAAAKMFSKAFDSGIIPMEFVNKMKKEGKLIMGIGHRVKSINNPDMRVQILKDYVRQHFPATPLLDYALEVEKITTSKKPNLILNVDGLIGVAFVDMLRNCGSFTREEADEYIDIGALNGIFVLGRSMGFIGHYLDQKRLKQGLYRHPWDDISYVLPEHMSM
Description: Binding affinity to ATP citrate lyase (unknown origin) assessed as dissociation constant

Series [4] concerns the target T2, ATP-citrate synthase. The source holds these as a separate data set.
Description: Inhibition of ATP citrate lyase (unknown origin)
The next series in a line: in vitro. The following applies: human, liver microsomes.
Series [5] deals with T1, Peptidyl-prolyl cis-trans isomerase FKBP4. This is another data set of the same source.
Description: Binding affinity to FKBP52 (unknown origin) assessed as dissociation constant by fluorescence polarization assay
For a further series, the system named is HEL. Nature of the series: cells. The conditions noted are these: Homo sapiens.
Series [6] concerns the target Tyrosine-protein kinase JAK2 (Homo sapiens, UniProt O60674).
Description: Inhibition of JAK2 (unknown origin)
A further series concerns SET-2. Nature of the series: cells. The conditions noted are these: Homo sapiens.
Series [7] addresses T3, Muscleblind-like protein 1 (Homo sapiens, UniProt Q9NR56).
T3 sequence (Q9NR56 whole entry): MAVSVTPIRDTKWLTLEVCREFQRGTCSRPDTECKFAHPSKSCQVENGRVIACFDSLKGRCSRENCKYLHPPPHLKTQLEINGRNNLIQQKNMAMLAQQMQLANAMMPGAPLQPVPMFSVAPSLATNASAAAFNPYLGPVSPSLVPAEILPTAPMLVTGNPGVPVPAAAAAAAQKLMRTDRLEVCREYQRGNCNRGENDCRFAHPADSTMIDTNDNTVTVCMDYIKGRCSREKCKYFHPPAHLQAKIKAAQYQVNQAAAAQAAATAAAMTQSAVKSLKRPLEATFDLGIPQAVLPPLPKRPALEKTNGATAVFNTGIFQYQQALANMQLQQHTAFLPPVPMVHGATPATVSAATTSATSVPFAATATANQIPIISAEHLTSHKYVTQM
Description: Binding affinity to MBNL1 (unknown origin) (1 to 272 residues) assessed as dissociation constant

Each structure is given as a SMILES string.

Tyrosine-protein kinase JAK2, sequence (O60674 whole entry): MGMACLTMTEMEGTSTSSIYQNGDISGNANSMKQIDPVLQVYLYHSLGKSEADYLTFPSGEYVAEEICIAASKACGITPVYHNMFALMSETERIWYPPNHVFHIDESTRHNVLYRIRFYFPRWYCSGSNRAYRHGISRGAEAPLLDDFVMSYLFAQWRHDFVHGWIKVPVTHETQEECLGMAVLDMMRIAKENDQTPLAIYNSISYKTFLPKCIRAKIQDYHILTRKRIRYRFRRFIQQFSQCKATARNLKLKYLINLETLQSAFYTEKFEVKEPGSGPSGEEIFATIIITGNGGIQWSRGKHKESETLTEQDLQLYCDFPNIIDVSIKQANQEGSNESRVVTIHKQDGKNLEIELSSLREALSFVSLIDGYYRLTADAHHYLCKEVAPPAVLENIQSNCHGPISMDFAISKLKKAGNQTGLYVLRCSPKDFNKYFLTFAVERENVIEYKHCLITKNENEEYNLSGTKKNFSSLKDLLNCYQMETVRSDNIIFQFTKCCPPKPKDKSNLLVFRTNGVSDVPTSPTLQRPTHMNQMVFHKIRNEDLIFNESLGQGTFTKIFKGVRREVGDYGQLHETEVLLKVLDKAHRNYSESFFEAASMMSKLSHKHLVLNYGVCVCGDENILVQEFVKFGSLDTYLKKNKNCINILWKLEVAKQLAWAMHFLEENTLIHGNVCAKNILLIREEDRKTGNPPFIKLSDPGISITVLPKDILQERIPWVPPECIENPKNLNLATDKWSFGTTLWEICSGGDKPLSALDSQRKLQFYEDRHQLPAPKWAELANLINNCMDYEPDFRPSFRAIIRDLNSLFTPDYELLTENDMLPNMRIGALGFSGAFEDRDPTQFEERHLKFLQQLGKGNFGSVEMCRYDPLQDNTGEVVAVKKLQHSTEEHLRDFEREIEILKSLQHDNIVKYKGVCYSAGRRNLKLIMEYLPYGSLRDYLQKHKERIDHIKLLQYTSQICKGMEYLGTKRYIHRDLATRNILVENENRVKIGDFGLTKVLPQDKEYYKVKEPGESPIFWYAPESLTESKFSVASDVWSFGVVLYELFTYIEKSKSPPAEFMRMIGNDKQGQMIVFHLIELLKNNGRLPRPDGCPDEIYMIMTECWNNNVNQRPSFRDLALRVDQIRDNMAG
Calcitonin gene-related peptide type 1 receptor, sequence (Q16602 whole entry, one chain of several): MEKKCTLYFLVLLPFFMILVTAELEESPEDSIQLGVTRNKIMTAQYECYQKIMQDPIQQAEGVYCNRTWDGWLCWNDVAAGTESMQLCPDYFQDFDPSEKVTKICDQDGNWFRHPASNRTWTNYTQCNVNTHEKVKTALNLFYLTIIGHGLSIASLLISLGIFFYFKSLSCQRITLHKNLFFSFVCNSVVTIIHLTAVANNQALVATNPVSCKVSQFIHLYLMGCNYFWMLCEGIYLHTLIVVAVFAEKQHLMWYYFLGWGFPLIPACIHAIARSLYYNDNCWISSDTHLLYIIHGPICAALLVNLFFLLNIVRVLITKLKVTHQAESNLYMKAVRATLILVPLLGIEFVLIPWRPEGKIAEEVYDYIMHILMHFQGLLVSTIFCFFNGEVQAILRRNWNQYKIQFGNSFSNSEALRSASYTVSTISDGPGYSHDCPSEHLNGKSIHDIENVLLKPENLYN
Plasminogen, sequence (P00747 97-580 limits assumed): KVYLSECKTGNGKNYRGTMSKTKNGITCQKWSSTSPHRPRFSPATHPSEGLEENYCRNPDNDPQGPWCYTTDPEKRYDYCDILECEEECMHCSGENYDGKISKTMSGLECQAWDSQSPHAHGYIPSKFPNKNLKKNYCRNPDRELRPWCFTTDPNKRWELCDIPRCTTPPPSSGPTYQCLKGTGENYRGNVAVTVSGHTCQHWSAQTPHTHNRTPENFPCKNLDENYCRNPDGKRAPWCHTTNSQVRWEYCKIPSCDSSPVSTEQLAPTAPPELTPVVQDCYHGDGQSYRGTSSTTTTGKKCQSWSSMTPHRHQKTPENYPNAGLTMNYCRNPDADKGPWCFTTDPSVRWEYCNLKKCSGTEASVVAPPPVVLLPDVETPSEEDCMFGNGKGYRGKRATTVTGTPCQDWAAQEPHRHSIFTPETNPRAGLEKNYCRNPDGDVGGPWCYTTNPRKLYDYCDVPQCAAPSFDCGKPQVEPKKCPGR
Plasminogen, sequence (P00747 581-810 limits assumed): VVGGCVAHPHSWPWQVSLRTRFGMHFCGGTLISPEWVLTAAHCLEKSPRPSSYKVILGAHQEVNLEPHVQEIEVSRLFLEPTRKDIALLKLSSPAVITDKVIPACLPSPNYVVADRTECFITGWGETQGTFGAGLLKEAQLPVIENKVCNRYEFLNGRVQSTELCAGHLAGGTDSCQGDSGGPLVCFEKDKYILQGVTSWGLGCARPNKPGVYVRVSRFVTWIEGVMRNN
Description for HEL: Antiproliferative activity against human HEL cells assessed as reduction in cell growth
Description for Plasminogen: Binding affinity to plasmin (unknown origin) assessed as inhibition constant
Description for Prothrombin: Binding affinity to thrombin (unknown origin) assessed as inhibition constant
Description for SET-2: Antiproliferative activity against human SET2 cells assessed as reduction in cell viability

Regarding `Cc1cc(C[C@@H](NC(=O)c2cnc3c(c2)C[C@@]2(C3)C(=O)Nc3ncccc32)C(=O)N(C)C)cc2cn[nH]c12`, the concentration for half-maximal inhibition (IC50) in [1] is 10 nM.
`COc1ccc(CC[C@@H](OC(=O)[C@@H]2CCCCN2C(=O)[C@H](c2cc(OC)c(OC)c(OC)c2)C2CCCCC2)c2cccc(OCC(=O)O)c2)cc1OC`: the inhibitory constant (Ki) in series [2] is over 50000 nM.
On to `N=C(N)c1ccc(CNC(=O)[C@H](Cc2cccc(C(=N)N)c2)NC(=O)[C@@H](CCCc2ccccc2)NS(=O)(=O)Cc2cccc(C(=O)O)c2)cc1`, for which the values for the inhibitory constant (Ki) on Prothrombin and on Plasminogen were 667 nM and 0.81 nM, respectively.
On ATP-citrate synthase [3], `COC(=O)c1cc(Cl)c(O)c(S(=O)(=O)Nc2cc(-c3ccccc3)c(F)cc2F)c1` displayed a Kd of 128 nM. The compound further returned an IC50 against ATP-citrate synthase [4] of 44 nM. The same compound returned a CLint scaled in “in vitro” of 372 mL/min/kg.
In the case of `COc1cccc([C@@H](CCc2ccc(OC)c(OC)c2)OC(=O)[C@@H]2CCCCN2C(=O)[C@H](c2cc(OC)c(OC)c(OC)c2)C2CCCCC2)c1`, the Kd in series [5] was over 10000 nM.
The compound `COc1ccc(CC[C@@H](OC(=O)[C@@H]2CCCCN2C(=O)[C@H](c2cc(OC)c(OC)c(OC)c2)C2CCCCC2)c2cccc(OCCN3CCOCC3)c2)cc1OC` yielded a Ki in series [2] of over 50000 nM.
In the series “in vitro”, `O=C1NCc2ccccc2-c2cc(c(F)cc2F)NS(=O)(=O)c2cc1cc(Cl)c2O` displayed a CLint scaled of 3.27 mL/min/kg.
Consider `Cc1cnc2nc1Nc1cccc(c1)COC/C=C/COCc1cc(ccc1OCCN1CCCC1)N2`, for which the figures for the IC50 (with HEL; in series [6]; with SET-2) were 3060 nM, 6 nM and 11100 nM, respectively.
In series [7], `COc1ccc2nc3cc(Cl)ccc3c(NCCCCNc3nc(N)nc(N)n3)c2c1` yielded a dissociation constant (Kd) of 300 nM.

What is called IC50 is the point on the concentration scale where inhibition reaches its midpoint. In general, Ki refers to the equilibrium dissociation constant of an inhibitor or competing ligand from its target. Lower therefore signals higher affinity. As usually defined, the Kd is a measure of binding affinity in units of concentration. A lower Kd goes with tighter binding. What is called CLint scaled is the capacity of the preparation to metabolise the compound, expressed as a volume cleared per time. The low end stands for greater metabolic stability, the high end for faster metabolism.
